The source made the active and inactive calls.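 Rule for the calls: active = caspase luminescence falls with dose and the half-maximal concentration AC50 from the fitted curve is at or below a set limit; inconclusive = flat fit at 30 to 70% signal loss, or invalid fit; inactive = AC50 above the limit, or signal rises instead.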 Bounds are passed on as bounds.

For this experiment, the system named is INS-1E cytokine-induced caspase-3/7, Caspase-Glo luminescence, 48 h. In words: inhibitors of cytokine-induced caspase-3/7 activity, dose response, orthogonal assay for beta-cell apoptosis protection project, INS-1E rat cells, luminescence (AID 463206).
On to `C/C(=N\Nc1nc(C)cc(-c2ccccc2)n1)c1ccc(O)cc1`, for which the AC50 is > 26 µM (inactive). To `Cc1ccc(N2C(=O)NC(=O)/C(=C\C=C\c3ccco3)C2=O)cc1C` belongs > 26 µM (inactive).

Take `O=C(CNc1cccc2ccccc12)N/N=C/c1ccc([N+](=O)[O-])o1`: the AC50 was > 26 µM (inactive). In the case of `Cc1onc(-c2c(Cl)cccc2Cl)c1C(=O)N/N=C(\N)COc1ccc(Cl)cc1`, the AC50 was > 26 µM (inactive). Regarding `CCOc1ccc(S(=O)(=O)NCc2ccncc2)cc1`, the AC50 is > 26 µM (inactive).

Consider `COc1ccc(-c2nn(-c3ccccc3)cc2/C=N/N2C(=O)CSC2=S)cc1`, for which the AC50 was > 26 µM (inactive). To `COc1ccc(/C=C2\CN(Cc3ccccc3)C/C(=C\c3ccc(OC)c(O)c3)C2=O)cc1O` belongs > 26 µM (inactive); to `COc1cnc(-c2ccccn2)nc1N(C)c1ccccc1`, > 26 µM (inactive). Take `C=C1[C@@H](O)[C@@H]2O[C@]3(CC[C@H](/C=C/[C@@H](C)[C@@H]4CC(C)=CC5(O[C@H](C[C@@](C)(O)C(=O)OC)CC[C@H]5O)O4)O3)CC[C@H]2O[C@@H]1[C@@H](O)C[C@H](C)[C@H]1OC2(CCCCO2)CC[C@H]1C` (some centres undefined): the AC50 is > 26 µM (inactive). To `CCOC(=O)c1ccc(NC(=O)NCc2cccnc2)cc1` belongs > 26 µM (inactive); to `O=C(NCC(c1ccco1)N1CCCC1)c1ccc(Cl)c(S(=O)(=O)N2CCc3ccccc32)c1` (centres undefined), > 26 µM (inactive); to `CCn1c(=O)c([N+](=O)[O-])c(Cl)c2ccccc21`, > 26 µM (inactive).

As for `Cc1sc2cc3c(c(C(=O)c4ccccc4)[n+]2c1C)-c1cccc2cccc-3c12`, the AC50 was > 26 µM (inactive).

Consider `CCc1nc(N2CCN(C(C)=O)CC2)c2c3c(sc2n1)CC(C(C)(C)C)CC3` (centres undefined), for which the AC50 was > 26 µM (inactive). Next, `O=c1nccc(N/N=C/c2ccccc2O)[nH]1`: > 26 µM (inactive); `O=C(N/N=C/c1cc(Br)cc(Cl)c1O)c1ccc2c(c1)OCO2`: > 26 µM (inactive); `COc1ccc(C)cc1NS(=O)(=O)c1ccc(NC(=O)CN(c2cc([N+](=O)[O-])ccc2C)S(C)(=O)=O)cc1`: > 26 µM (inactive).

For `O=C1C=C(Nc2ccc(O)cc2)C(=O)c2ccccc21`, the AC50 was > 26 µM (inactive). Next, `COc1ccc(CCNc2c3ccccc3nc3ccccc23)cc1OC`: 4.3 µM; `CC(=O)c1c(C)oc2c1C(=O)c1ccccc1C2=O`: > 26 µM (inactive); `CCn1nc(C)c(CNC(=O)c2ccc(OC3CCN(Cc4ccccn4)CC3)cc2)c1C`: > 26 µM (inactive). For the compound `Cc1ccc2nc(-c3ccc(-c4cccc(Cl)c4)cc3)c(NCc3ccccc3)n2c1`, the AC50 is > 26 µM (inactive). To `COc1cc([N+](=O)[O-])cc(/C=N/NC(=O)c2cc(-c3ccccc3)nc3ccccc23)c1O` belongs > 26 µM (inactive).

Turning to `Cc1[nH]c2c(ccc3ccccc32)c1C1C(CCN)C1(C)C` (centres undefined), the AC50 is > 26 µM (inactive). To `CCCCC1(Cc2ccc([N+](=O)[O-])cc2)C(=O)N(c2ccccc2)N(c2ccccc2)C1=O` belongs > 26 µM (inactive). As for `COc1ccc(-c2nc(-c3ccccn3)no2)cc1`, the AC50 was > 26 µM (inactive). For the compound `CC1=C/C(=N\OS(=O)(=O)c2ccccc2)C(C(C)C)=CC1=O`, the AC50 is > 26 µM (inactive). Regarding `c1ccc(Nc2nc(NCc3ccco3)c3ccccc3n2)cc1`, the AC50 is 23.7 µM. Next, `CCC(C)(C)c1ccc(OCCCC[n+]2cccc(C)c2C)c(C(C)(C)CC)c1`: > 26 µM (inactive).

In the case of `O=C1N/C(=N\N=C\c2cccnc2)SC1Cc1ccc(SC(F)F)cc1` (centres undefined), the AC50 is > 26 µM (inactive).

As for `O=C(N/N=C/c1cc(Cl)ccc1O)C(=O)Nc1ccccc1OC(F)(F)C(F)F`, the AC50 is > 26 µM (inactive). For the compound `CCN(CC)c1ccc(/C=N/NC(=O)CNC(=O)C2COc3ccccc3O2)c(O)c1` (centres undefined), the AC50 was > 26 µM (inactive).

As for `C/C(=N\NC(=O)C(c1ccccc1)c1ccccc1)c1ccccn1`, the AC50 is > 26 µM (inactive). Next, `O=[N+]([O-])c1cccc(-c2cn3nc(-c4ccccc4)c(-c4ccccc4)nc3n2)c1`: > 26 µM (inactive). Next, `COc1ccc(CN2CCN(CCSc3ccc(C)cc3)CC2)c(OC)c1OC`: > 26 µM (inactive). Next, `CCCCC(=O)NC(c1ccc(N(CC)CC)cc1)c1ccc2cccnc2c1O` (centres undefined): > 26 µM (inactive).

On to `Cc1cc2nc(NCCCO)n(CC(=O)c3cc(C(C)(C)C)c(O)c(C(C)(C)C)c3)c2cc1C`, for which the AC50 was > 26 µM (inactive). On to `CN1/C(=C\P(=O)(N(C)C)N(C)C)C(C)(C)c2ccccc21`, for which the AC50 is > 26 µM (inactive). Next, `Cc1cc(C(=O)NC2CCCc3c2cnn3-c2ccc(C)c(C)c2)n(C)n1` (centres undefined): > 26 µM (inactive); `CCN(CC)c1ccc(/C=N/NC(=O)c2ccco2)c(O)c1`: > 26 µM (inactive). Next, `COc1ccc(CNCCC(c2ccc(OC(C)C)cc2)C(C)C)cc1OC` (centres undefined): > 26 µM (inactive); `CS(=O)(=O)N(CC(=O)Nc1ccc(CC#N)cc1)c1ccc(C23CC4CC(CC(C4)C2)C3)cc1`: > 26 µM (inactive); `CCCCCc1ccc(-c2cn(CN3C(=O)c4ccccc4C3=O)nn2)cc1`: > 26 µM (inactive). Regarding `C#CCOCCOCCOCCNc1nc(N2CCN(C(=O)CCCCCCCCCCNC(=O)[C@H]([C@@H](C)CC)n3cc(CCCCN=C(N)N)nn3)CC2)nc(N2CCN(C(=O)CCCCCCCCCCNC(=O)[C@H](CCCCN)n3cc(C)nn3)CC2)n1`, the AC50 is > 26 µM (inactive). To `CC(=O)c1sc(NC(=O)C2(F)C(F)(F)C(F)(F)C(F)(F)C(F)(F)C2(F)F)nc1C` belongs > 26 µM (inactive).

On to `Nc1ccc(Nc2ccccc2)cc1`, for which the AC50 was 17.7 µM.

Turning to `O=C(CSC1=NCCS1)Nc1ccnc2ccccc12`, the AC50 is > 26 µM (inactive). Next, `CCC(CNc1cc(OC)cc2cccnc12)NC1CCCCC1` (centres undefined): > 26 µM (inactive); `C/C(=N\NC(N)=S)c1ccncc1`: > 26 µM (inactive). Regarding `Cc1cccc(NC(=S)N/N=C/c2ccc([N+](=O)[O-])s2)c1`, the AC50 was > 26 µM (inactive). Next, `CC(C)(C)Nc1nc(-c2ccccn2)nc2ccccc12`: > 26 µM (inactive); `COc1cc(/C=C2\CC(C(C)(C)C)C/C(=C\c3cc(OC)c(OC)c(OC)c3)C2=O)cc(OC)c1OC` (centres undefined): > 26 µM (inactive). As for `Cc1ccc(S(=O)(=O)N2CCN(c3ncnc4ccccc34)CC2)cc1`, the AC50 is > 26 µM (inactive). Next, `COC(=O)c1ccccc1NC1=C/C(=N\S(=O)(=O)c2cccs2)c2ccccc2C1=O`: > 26 µM (inactive); `CCCCn1c(=N)n(CC(=O)c2ccc(Br)s2)c2ccccc21`: > 26 µM (inactive). To `COc1cccc(N2CCN(c3ncnc4c3[nH]c3ccc(F)cc34)CC2C)c1` (centres undefined) belongs > 26 µM (inactive); to `O=S(=O)([N-]c1nc2ccccc2nc1-[n+]1ccc(Cc2ccccc2)cc1)c1ccc(Br)s1`, > 26 µM (inactive). `NC(=O)c1ccccc1OC1CCC1`: the AC50 was > 26 µM (inactive). To `COc1cccc(/C=N/Nc2nc3ccccc3[nH]2)c1O` belongs > 26 µM (inactive).

For the origin of these results see PubChem BioAssay AID463206 (Broad Institute, 2010).
